One series deals with phenyl benzoquinone. As to the kind of experiment: Analgesic activity by the technique of SIEGMUND et al. (phenyl benzoquinone). Type of series: in vivo. The following applies: read-out: ED50, analgesic activity. Here is the method:
The compounds are administered orally 30 minutes before the injection of the phenyl benzoquinone solution.

For a further series, the system named is rats. The format is in vivo, rat. Here is the method:
The ulceration index was determined in rats subjected to constraint for 7 hours.
The vehicle is a 4% aqueous solution of Tween 80 (TM - surface active agent).
The ulcerogenic index is calculated in accordance with the criteria established by […] et al. (Arch. Int. Pharmacodyn; 1971, 190, 6-13).

The subject of series [1] is mice. As to the kind of experiment: Falling of mice placed on a turning horizontal bar (central properties). The following applies: bar of 4 cm diameter turning at 8 rpm. The format is in vivo, mouse.
Another series has as its system rabbit tooth. As to the kind of experiment: Analgesic activity: electrical stimulation of rabbit tooth (CHEYMOL). Type of series: in vivo. The following applies: for time of maximum activity after administration: 100 mg/kg, administered orally; for analgesic activity compared with the control product (glaphenine): electrical stimulation of rabbit tooth. From the text:
(b) Electrical stimulation of rabbit tooth in accordance with CHEYMOL - Therapie 1959, XIV, p. 350 to 360.

The nature of series [2]: Acute toxicity (LD50, method of MILLER and TAINTER) in the conventional mouse. The following applies: in vivo, mouse about 20 g. Here is the method: The toxicology study was carried out on the conventional mouse weighing about 20 g.
The substances were administered orally and intraperitoneally. The LD50 is calculated by the method of MILLER and TAINTER (Proc. Soc. Exper. Biol. Med. 1944, 57, 261).

In series [3] the test system is mice. As to the kind of experiment: Potentialization of anesthesia induced by chloral hydrate in mice. The format is in vivo, mouse. The settings on record: 350 mg/kg chloral hydrate i.p., compound 100 mg/kg orally 30 minutes in advance.
Series [4] is described as follows: Solubility characteristics.
Where [5] appears, read: oral, 30 minutes before injection of phenyl benzoquinone solution.
The mark [6] stands for this setting: ip, intraperitoneal, read-out: LD50, intraperitoneally.
[7] abbreviates: rats, oral, dose 100 (unit not given), N = 10, constraint for 7 hours.

≈ marks a conversion by molar mass, not a printed value. Where two headings read alike, the source gives them in different places.

The ED50 is the midpoint of the dose-response relation. As for `CC(=O)Oc1ccccc1C(=O)O` [Aspirin, reference compound], the ED50 with phenyl benzoquinone (po) is 100 mg/kg. The Ulceration index in the series with rats (rat, in vivo, po) is 13.1.

A word on the LD50: it is the dose expected to kill half of the subjects tested. Usually solubility stands for the dissolved amount per volume that the medium holds. Read a low solubility as little dissolved substance. In the case of `O=C(NCCOC(=O)c1ccccc1Nc1ccnc2cc(Cl)ccc12)c1cccnc1` [F 1531, β-nicotinamido-ethyl-N(7-chloro 4-quinolyl)-anthranilate], in the series with mice [1], the “doses resulting in the falling of mice from turning horizontal bar” value is recorded as “identical with the lethal doses”. In the series on phenyl benzoquinone (setting [5]), the median effective dose (ED50) amounted to 28 mg/kg. For the same molecule, in the series with rabbit tooth, the “time of maximum activity after administration” value is “about 60 minutes” and the “analgesic activity compared with the control product (glaphenine)” value was “better activity than the control product (glaphenine)”. In addition, the LD50 in series [2] (setting [6]) was greater than 500 mg/kg. The LD50 in series [2] (oral, read-out: LD50, orally) stood at 2800 ± 500 mg/kg. Further, in the series with mice [3], the “effect on anesthesia induced by chloral hydrate” value was “neither potentialization nor decrease in the anesthesia”. This molecule returned a solubility in series [4] (1 n hcl) of 200 mg/mL (≈ 448 mM). The molecule also came in with a Ulceration index in the series on rats (setting [7]) of 5.3.

Turning to `O=C(NCCOC(=O)c1ccccc1Nc1ccnc2cc(C(F)(F)F)ccc12)c1cccnc1` [F 1636, β-nicotinamido-ethyl-N(7-trifluoromethyl-4-quinolyl)-anthranilate], the ED50 with phenyl benzoquinone (setting [5]) amounted to 15 mg/kg. Further, in the series on rabbit tooth, the “time of maximum activity after administration” value is on record as “about 60 minutes” and the “analgesic activity compared with the control product (glaphenine)” value is on record as “better activity than the control product (glaphenine)”. Further, in series [2] (setting [6]), the LD50 was greater than 1000 mg/kg. Moreover, in series [2] (oral, read-out: LD50, orally), the LD50 worked out at 3200 ± 500 mg/kg. Further, the “solubility in dimethyl formamide” value in series [4] (dimethyl formamide) worked out at 8%. This molecule also had a Ulceration index in the series on rats (setting [7]) of 4.2.

`O=C(OCC(O)CO)c1ccccc1Nc1ccnc2cc(Cl)ccc12` (stereo not shown) [Glaphenine, reference compound]: in the series with phenyl benzoquinone (setting [5]), the ED50 came out at 36 mg/kg. Also, the LD50 in series [2] (setting [6]) is roughly 500 mg/kg; in series [2] (oral, read-out: LD50, orally), 1500 ± 500 mg/kg. Also, the Ulceration index with rats (setting [7]) came to 8.8.

In series [4] (alcohol), `Nc1ccccc1C(=O)OCCNC(=O)c1cccnc1` [β-nicotinamido-ethyl anthranilate] yielded a solubility in alcohol of 2.5%. Besides, the “solubility in dimethyl acetamide” value in series [4] (dimethyl acetamide) turned out to be 100%. Also, the solubility in water entry in series [4] (water) is given as “insoluble”.

These data come from patent US4122181A, “Analgesic (3-micotinamido-N(quinolyl) anthranilates and method of use” (Pierre Fabre S.A., priority 1975, dated 1978).
